pIC50: −log10 of the molar value.
Molecular target: ASK1 kinase (Homo sapiens (Human), UniProt Q99683)
Assay: ASK1 kinase inhibition, HTRF KinEASE-STK TR-FRET assay
Format: biochemical
Conditions: 5 nM ASK1, 1 uM STK3 peptide substrate, 100 uM ATP, 3 hours
Procedure: The ability (IC50) of compounds to inhibit ASK1 kinase activity was determined by HTRF® KinEASE™ Assay System.
ASK1 was purchased from Thermofisher (Catalogue # PV4011), ATP was purchased from Sigma (Catalogue # A7699), HTRF® KinEASE™ Assay System was obtained from Cisbio (Bedford, Mass.). ½ A Area plate was purchased from Perkin Elmer (Catalogue # #6005560). HTRF® KinEASE™-STK is a generic method for measuring serine/threonine kinase activities using a time-resolved fluorescence resonance energy transfer (TR-FRET) immunoassay. The IC50 value for each compound was determined in the presence of compound (various concentration from 0 to 10 μM) and a fixed amount of ATP and peptide substrates. The test compound, 1 uM STK3 peptide substrate, and 5 nM of ASK1 kinase are incubated with kinase reaction buffer containing 50 mM HEPES pH 7.5, 0.01% BRU-35, 10 mM MgCl2, and 1 mM EGTA for 30 minutes. 100 uM ATP is added to start kinase reaction and incubated for 3 hours. The STK3-antibody labeled with Eu^3+-Cryptate and 125 nM streptavidin-XL665 are mixed in a single addition with stop reagents provided by the Cisbio kit used to stop the kinase reaction. Fluorescence is detected using an Envision Multilabeled 2014 reader from PerkinElmer. The Fluorescence is measured at 615 nm (Cryptate) and 665 nm (XL665) and a ratio of 665 nm/615 nm is calculated for each well. […] IC50 was determined by XLfit 5.3. […]

Sequence of ASK1 kinase (Q99683 whole entry): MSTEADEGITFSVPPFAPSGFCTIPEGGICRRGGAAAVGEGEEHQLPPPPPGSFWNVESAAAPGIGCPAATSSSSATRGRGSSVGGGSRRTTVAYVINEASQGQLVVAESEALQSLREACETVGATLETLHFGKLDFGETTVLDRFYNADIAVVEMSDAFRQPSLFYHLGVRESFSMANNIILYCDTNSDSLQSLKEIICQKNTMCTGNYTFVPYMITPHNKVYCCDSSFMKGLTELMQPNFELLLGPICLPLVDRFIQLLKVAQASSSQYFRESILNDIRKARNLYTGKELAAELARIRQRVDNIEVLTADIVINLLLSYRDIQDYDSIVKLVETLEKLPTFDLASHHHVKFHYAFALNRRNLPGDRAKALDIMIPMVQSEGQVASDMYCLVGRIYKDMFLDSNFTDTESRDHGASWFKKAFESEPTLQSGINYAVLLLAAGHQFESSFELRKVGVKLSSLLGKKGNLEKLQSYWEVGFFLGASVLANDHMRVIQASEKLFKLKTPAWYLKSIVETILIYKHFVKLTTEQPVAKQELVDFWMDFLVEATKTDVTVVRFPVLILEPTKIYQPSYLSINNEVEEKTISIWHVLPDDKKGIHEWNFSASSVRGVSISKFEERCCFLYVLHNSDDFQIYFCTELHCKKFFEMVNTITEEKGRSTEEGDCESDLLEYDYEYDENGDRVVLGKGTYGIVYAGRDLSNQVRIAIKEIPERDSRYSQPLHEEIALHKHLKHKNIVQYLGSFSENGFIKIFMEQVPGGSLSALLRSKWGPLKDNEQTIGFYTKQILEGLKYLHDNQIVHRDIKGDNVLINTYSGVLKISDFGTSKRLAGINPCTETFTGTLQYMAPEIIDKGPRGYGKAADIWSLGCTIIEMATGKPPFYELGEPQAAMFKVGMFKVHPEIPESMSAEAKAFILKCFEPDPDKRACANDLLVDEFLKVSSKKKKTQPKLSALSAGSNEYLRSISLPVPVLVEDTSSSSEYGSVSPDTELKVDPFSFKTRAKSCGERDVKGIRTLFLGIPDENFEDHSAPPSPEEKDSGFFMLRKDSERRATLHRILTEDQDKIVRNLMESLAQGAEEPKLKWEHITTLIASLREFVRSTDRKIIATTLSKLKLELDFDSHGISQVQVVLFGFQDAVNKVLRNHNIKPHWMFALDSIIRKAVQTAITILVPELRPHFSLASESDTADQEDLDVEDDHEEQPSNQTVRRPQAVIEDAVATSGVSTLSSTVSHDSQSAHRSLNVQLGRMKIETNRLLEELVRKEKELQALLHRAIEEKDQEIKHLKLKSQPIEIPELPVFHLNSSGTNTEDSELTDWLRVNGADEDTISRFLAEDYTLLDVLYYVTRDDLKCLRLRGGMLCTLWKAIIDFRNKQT

Cc1cc(F)c(C(=O)Nc2cccc(-c3nnnn3C(C)C)n2)cc1-n1cnc(C(F)(F)F)c1 [Example 2b]
pIC50: 6.00 to 7.00
